Source: ChEMBL document CHEMBL3046768, “New antiepileptic agents: structureactivity relationships” (Med Chem Res, 2012)
pEC50: −log10 of the molar value.

How the values were obtained:
Mus musculus [1] = test: Anticonvulsant activity in ip dosed Mus musculus (mouse) assessed as inhibition of maximal electroshock-induced seizure; type: functional; settings: for ED50: Mus musculus, ip
Mus musculus [2] = test: Protective index, ratio of TD50 for ip dosed Mus musculus (mouse) to ED50 for ip dosed Mus musculus (mouse) assessed as inhibition of maximal electroshock-induced seizure; type: functional
Rattus norvegicus [3] = test: Anticonvulsant activity in po dosed Rattus norvegicus (rat) assessed as inhibition of maximal electroshock-induced seizure after 1 hr; type: functional
Rattus norvegicus [4] = test: Protective index, ratio of TD50 for po dosed Rattus norvegicus (rat) to ED50 for anticonvulsant activity in po dosed rat assessed as inhibition of maximal electroshock-induced seizure; type: functional
Mus musculus [5] = test: Anticonvulsant activity in ip dosed Mus musculus (mouse) assessed as inhibition of maximal electroshock-induced seizure after 1 hr; type: functional
Mus musculus [6] = species: Mus musculus; test: Protective index, ratio of TD50 for Mus musculus (mouse) to […] for Mus musculus (mouse) assessed as inhibition of maximal electroshock-induced seizure; type: functional
[7] = Toxicity in ip dosed maximal electroshock-induced seizure Mus musculus (mouse) model; type: organism-based; settings: in vivo
[8] = Oral bioavailability in Rattus norvegicus (rat); type: ADME, organism-based; settings: in vivo
[9] = Toxicity in po dosed maximal electroshock-induced seizure Rattus norvegicus (rat) model; type: organism-based; settings: in vivo
Rattus norvegicus [10] = test: Protective index, ratio of TD50 for ip dosed Rattus norvegicus (rat) to ED50 for ip dosed rat assessed as inhibition of maximal electroshock-induced seizure; type: functional
Rattus norvegicus [11] = test: Anticonvulsant activity in ip dosed Rattus norvegicus (rat) assessed as inhibition of maximal electroshock-induced seizure; type: functional
Rattus norvegicus [12] = test: Anticonvulsant activity in ip dosed Rattus norvegicus (rat) assessed as inhibition of subcutaneous pentylene tetrazole-induced seizure; type: functional
Rattus norvegicus [13] = test: Anticonvulsant activity in po dosed Rattus norvegicus (rat) assessed as inhibition of maximal electroshock-induced seizure after 5 hr; type: functional
Mus musculus [14] = test: Anticonvulsant activity in ip dosed Mus musculus (mouse) assessed as inhibition of subcutaneous pentylene tetrazole-induced seizure; type: functional
Rattus norvegicus [15] = test: Anticonvulsant activity in po dosed Rattus norvegicus (rat) assessed as inhibition of maximal electroshock-induced seizure after 0.5 hr; type: functional
Mus musculus [16] = test: Anticonvulsant activity in ip dosed Mus musculus (mouse) assessed as inhibition of maximal electroshock-induced seizure after 0.25 hr; type: functional
Rattus norvegicus [17] = test: Anticonvulsant activity in po dosed Rattus norvegicus (rat) assessed as inhibition of maximal electroshock-induced seizure after 4 hr; type: functional
[18] = biological target: T1, 5-hydroxytryptamine receptor 2C (Homo sapiens, UniProt P28335); test: Agonist activity at Homo sapiens (human) 5-HT2C receptor assessed as calcium mobilization by cell based assay; type: functional
T1 sequence (P28335 whole entry): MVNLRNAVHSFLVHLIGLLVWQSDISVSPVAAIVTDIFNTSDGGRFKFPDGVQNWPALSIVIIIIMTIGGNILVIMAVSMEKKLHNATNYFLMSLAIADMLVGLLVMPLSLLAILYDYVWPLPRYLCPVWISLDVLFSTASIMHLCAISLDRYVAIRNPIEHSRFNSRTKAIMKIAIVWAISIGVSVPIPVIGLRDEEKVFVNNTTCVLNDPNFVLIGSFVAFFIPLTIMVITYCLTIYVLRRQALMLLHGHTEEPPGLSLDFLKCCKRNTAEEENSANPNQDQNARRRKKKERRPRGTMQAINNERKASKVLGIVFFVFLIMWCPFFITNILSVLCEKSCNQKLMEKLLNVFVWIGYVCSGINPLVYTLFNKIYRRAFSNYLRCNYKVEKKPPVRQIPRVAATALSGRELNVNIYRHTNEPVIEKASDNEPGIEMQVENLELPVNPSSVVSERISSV

[19] = biological target: T2, 5-hydroxytryptamine receptor 2C (Homo sapiens) (UniProt P28335); test: (§1) Agonist activity at Homo sapiens (human) 5-HT2C receptor assessed as 5-HT-induced calcium mobilization by cell based assay; type: functional
T2 sequence (whole entry): T1 sequence (P28335 whole entry)

[20] = biological target: T1, 5-hydroxytryptamine receptor 2C; test: as §1; type: functional
Mus musculus [21] = test: Anticonvulsant activity in ip dosed Mus musculus (mouse) assessed as inhibition of subcutaneous metrazol-induced seizure; type: functional
[22] = biological target: 5-hydroxytryptamine receptor 2A (Homo sapiens) (UniProt P28223); test: Agonist activity at Homo sapiens (human) 5-HT2A receptor assessed as 5-HT-induced phosphoinositide hydrolysis by cell based assay; design: scale not given: the % may be the effect or the level left
Chain of 5-hydroxytryptamine receptor 2A (Homo sapiens) (P28223 whole entry): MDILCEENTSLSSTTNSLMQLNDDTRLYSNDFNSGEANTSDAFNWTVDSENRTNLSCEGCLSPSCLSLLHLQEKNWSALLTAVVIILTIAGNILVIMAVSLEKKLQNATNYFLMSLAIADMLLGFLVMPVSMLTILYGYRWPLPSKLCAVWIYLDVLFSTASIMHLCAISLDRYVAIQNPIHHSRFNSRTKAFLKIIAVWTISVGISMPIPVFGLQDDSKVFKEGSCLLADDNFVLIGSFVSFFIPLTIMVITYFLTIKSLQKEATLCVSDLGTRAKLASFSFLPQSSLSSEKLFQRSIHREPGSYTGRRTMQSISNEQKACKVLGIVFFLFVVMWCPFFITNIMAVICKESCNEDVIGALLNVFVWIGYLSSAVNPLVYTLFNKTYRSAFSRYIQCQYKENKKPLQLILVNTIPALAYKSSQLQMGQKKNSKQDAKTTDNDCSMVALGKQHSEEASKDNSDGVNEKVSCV

[23] = biological target: T1, 5-hydroxytryptamine receptor 2C; test: Agonist activity at Homo sapiens (human) 5-HT2C receptor
Mus musculus [24] = species: Mus musculus; test: Anticonvulsant activity in Mus musculus (mouse) assessed as inhibition of maximal electroshock-induced seizure; type: functional
Rattus norvegicus [25] = species: Rattus norvegicus; test: Anticonvulsant activity in Rattus norvegicus (rat) assessed as inhibition of maximal electroshock-induced seizure; type: functional

## Oc1ccccc1-c1nnc(Nc2cccc(F)c2)s1
Mus musculus [1]
  inhibition (INH): 70%

## CC(=O)NC(C)C(=O)NCc1ccccc1 (stereo not drawn)
Mus musculus [2]
  Ratio TD50/ED50: 5.9
Rattus norvegicus [3]
  ED50: 48 mg/kg
Rattus norvegicus [4]
  Ratio TD50/ED50: >20
Mus musculus [5]
  ED50: 77 mg/kg

## O=C1CC2(CCCC2)C(=O)N1OCc1ccccc1
Mus musculus [6]
  PI: >4.5

## COC(=O)C1C(=O)C=C(Nc2cc(C)on2)CC1C (stereo not drawn)
[7]
  TD50: > 500 mg/kg
Mus musculus [1]
  ED50: 68.9 mg/kg
Mus musculus [2]
  Ratio TD50/ED50: >7.3

## C[C@H]1CN(c2ccc(C(F)(F)F)c3ccoc23)CCN1
[8]
  bioavailability: 83%

## CCOC(=O)C1C(=O)C=C(Nc2cc(C)on2)CC1C (stereo not drawn)
[9]
  TD50: > 500 mg/kg
Rattus norvegicus [4]
  Ratio TD50/ED50: >49.6

## O=C(NCc1ccccc1F)c1ccccn1 [PICOLINIC ACID FLUOROBENZYLAMIDE]
Rattus norvegicus [10]
  Ratio TD50/ED50: <3.4
Rattus norvegicus [11]
  ED50: 14.7 mg/kg
Rattus norvegicus [12]
  ED50: > 50 mg/kg

## CCC1(c2ccccc2)C(=O)NC(=O)NC1=O [PHENOBARBITAL]
Rattus norvegicus [13]
  ED50: 9.1 mg/kg
Mus musculus [5]
  ED50: 22 mg/kg

## CCCC(CCC)C(=O)[O-].[Na+] [VALPROATE SODIUM]
Mus musculus [14]
  inhibition (INH): 80%

## CC(=O)NN(C(=O)NCc1ccccc1)c1nccs1
Rattus norvegicus [15]
  ED50: 6.2 mg/kg
[9]
  TD50: > 250 mg/kg
Mus musculus [2]
  Ratio TD50/ED50: 5.4
Mus musculus [16]
  ED50: 22 mg/kg
Rattus norvegicus [4]
  Ratio TD50/ED50: >40

## Cc1cc(NC2=CC(=O)C(C(=O)OC(C)(C)C)C(C)C2)no1 (stereo not drawn)
[9]
  TD50: > 500 mg/kg
Rattus norvegicus [4]
  Ratio TD50/ED50: >17.8

## CCNc1nnc(-c2ccccc2O)s1
Mus musculus [1]
  inhibition (INH): 90%

## O=C1NC(=O)C(c2ccccc2)(c2ccccc2)N1 [PHENYTOIN]
Rattus norvegicus [17]
  ED50: 30 mg/kg

## Cc1c2n(c3c(C)c(Cl)ccc13)C(C)NCC2 (stereo not drawn)
[18]
  pEC50: 9.40

## Cc1noc(C)c1COc1cc(F)c(COC(=O)N2[C@H](C)CNC[C@@H]2C)c(F)c1
[19]
  Activity: 91%

## CCOc1ccc2c(c1)c(C[C@H](C)N)c1n2CCC1
[20]
  pEC50: 8.40
[19]
  Activity: 87%

## O=C1NCCCCC1(O)c1ccccc1 (stereo not drawn)
Mus musculus [21]
  ED50: 74 mg/kg
Mus musculus [1]
  ED50: 63 mg/kg

## CCc1cc2c(ccc3cnn(C[C@H](C)N)c32)o1
[22]
  Activity: 97%

## C1CC2CNCCN3C2C(C1)[C@H]1CCC[C@H]13 (stereo partly drawn)
[23]
  pEC50: 7.12

## Clc1ccc(-c2ccc(-c3cc4c5c(c3)[C@@H]3CNC[C@@H]3N5CCCS4)cc2)c(Cl)c1
[23]
  pEC50: 8.52

## CC1(C)C(C(=O)NC(N)=O)C1(C)C [2,2,3,3-TETRAMETHYLCYCLOPROPANECARBONYLUREA]
Mus musculus [24]
  ED50: 90 mg/kg
Rattus norvegicus [25]
  ED50: 29 mg/kg
